Measured values: patent US6855348B2, “Insecticidal composition derived from plants” (priority 2000, dated 2005)
Where “and” joins values, the source holds several entries; their conditions need not be identical. Equal entries are not always repeated. Where two headings read alike, the source gives them in different places.

How the values were obtained:
Sitophilus oryzae = assay: Insecticidal activity test, treated filter paper in petri dish; assay type: in vivo, Sitophilus oryzae L.; conditions: adults, 24 hours
Experimental: (§1) Stored-product pests used in the present invention were adult Lasioderma serricome Fab., adult Sitophilus oryzae L. and adult Callosobruchus chinensis L., and it was selected insects were not exposed to any insecticide. L. serricorne was bred in a beaker(10 cm diameter, 15 cm height) with wheat bran, S. oryzae was bred in a platic container(20×20×15 cm) with peanuts, and was bred in a plastic container(26×30×20 cm) with red beans. All insects were maintained at 28±1° C., 55±5% RH(relative humidity) and 16:8 hr(day:night) light condition.
(§2) Right after treatment, paper was transferred to hood and put in hood for about 2 minutes to completely evaporate solvent, and then, the above paper was put on paper treated with 20 adult pests in petri dish and this dish was covered with a lid. 24 hours after insecticide activity was investigated. To faacilitate handling of adult pests by their reducing activity, L. sericorne was put at −4° C. for 2 minutes, S. oryzae was used without this treatment, and C. chinensis was selected by using sucking tube. Healthy pests used in test were selected right before 6 hours of test. They were maintained at 28±1° C., 50-60% RH and 16:8 hr(day:night) light condition.
(§3) Insecticidal activity of salicylaldehyde against stored-product pests was investigated by the insecticidal test of Test 6. Test was repeated 25 times for adult S. oryzae, and 10 times for adult L. serricorne and adult C. chinensis. 10 adult pests were used for each test.

Callosobruchus chinensis = assay: as above; assay type: in vivo, Callosobruchus chinensis L.; conditions: adults, 24 hours
Experimental: as §1, §2, §3

Lasioderma serricorne = assay: as above; assay type: in vivo; conditions: adults, 24 hours
Experimental: as §1, §2, §3

[1] = tested on: Dermatophagoides pteronyssinus
Experimental: (§4) American house dust mite (Dermatophagoides farinae) and European house dust mite (Dermatophagoide pteronyssinus) were maintained at 75±5% RH (relative humidity) at 25±1° C., and were provided a feed mixture of fish meal and multi-vitamins in a ratio of 1 to 1 on a 12.5×10.5×5 cm container.
(§5) The starting concentration is important for the primary screening of bioactive compounds from plant extracts and oils. […] 1 mg of the methanol extracts or oils were suspended with 40 μl of methanol and were transferred to a colorless microtube (2 ml). The microtube was vertically shaken several times to disperse the contents to the wall and cap of the microtube and it was placed in a freeze dryer for 1 hour in order to volatilize the solvent. Twenty-five mites were placed on the prepared microtube, and all treatment groups were transferred to an incubator kept at […]. Active mites only were selected with a fine brush under a microscope. Mortalities were determined with a microscope at 24 hours and 48 hours after treatment. […] All tests were replicated four or more times. The percentage mortality was determined and transformed to arcsine square-root values for analysis of variance (ANOVA). Treatment means were compared and separated by Scheffe's test at the P=0.05 (SAS Institute, 1996). Means (±standard error) of untransformed data are reported. Controls received 40 μl of methanol.

Dermatophagoides farinae = tested on: Dermatophagoides farinae
Experimental: as §4, §5

stored-product pests = assay: Insecticidal activity test, statements not resolved by pest species; assay type: in vivo; conditions: concentration of 1.25 mg
Experimental: as §1, §2

O=Cc1ccccc1O [salicylaldehyde]
Mortality (Means ± standard error, %) (Sitophilus oryzae; 0.3125 mg/paper): 7.0 ± 2.1 b %
Mortality (Means ± standard error, %) (Sitophilus oryzae; 0.625 mg/paper): 97%
Mortality (Means ± standard error, %) (Sitophilus oryzae; 1.25 mg/paper): 100 a %
Mortality (Means ± standard error, %) (Sitophilus oryzae; 2.5 mg/paper): 100 a %
Mortality (Means ± standard error, %) (Sitophilus oryzae; 5 mg/paper): 100 a %
Mortality (Means ± standard error, %) (Callosobruchus chinensis; 0.15625 mg/paper): 68.0 ± 3.9 b %
Mortality (Means ± standard error, %) (Callosobruchus chinensis; 0.3125 mg/paper): 97%
Mortality (Means ± standard error, %) (Callosobruchus chinensis; 0.625 mg/paper): 100%
Mortality (Means ± standard error, %) (Callosobruchus chinensis; 1.25 mg/paper): 100 a %
Mortality (Means ± standard error, %) (Callosobruchus chinensis; 2.5 mg/paper): 100 a %
Mortality (Means ± standard error, %) (Callosobruchus chinensis; 5 mg/paper): 100 a %
Mortality (Means ± standard error, %) (Lasioderma serricorne; 0.3125 mg/paper): 87% and 86.7 ± 3.3 b %
Mortality (Means ± standard error, %) (Lasioderma serricorne; 0.625 mg/paper): 100%
Mortality (Means ± standard error, %) (Lasioderma serricorne; 1.25 mg/paper): 100 a %
Mortality (Means ± standard error, %) (Lasioderma serricorne; 2.5 mg/paper): 100 a %
Mortality (Means ± standard error, %) (Lasioderma serricorne; 5 mg/paper): 100 a %
Mortality (Means ± standard error, %) ([1]; 0.125 mg/tube, 24 hr): 0e %
Mortality (Means ± standard error, %) ([1]; 0.125 mg/tube, 48 hr): 0e %
Mortality (Means ± standard error, %) ([1]; 0.2 mg/tube, 24 hr): 6.0 ± 1.1d %
Mortality (Means ± standard error, %) ([1]; 0.2 mg/tube, 48 hr): 9.0 ± 1.0d %
Mortality (Means ± standard error, %) ([1]; 0.25 mg/tube, 24 hr): 7.0 ± 3.0d %
Mortality (Means ± standard error, %) ([1]; 0.25 mg/tube, 48 hr): 8.0 ± 2.8d %
Mortality (Means ± standard error, %) ([1]; 0.3 mg/tube, 24 hr): 22.0 ± 2.6c %
Mortality (Means ± standard error, %) ([1]; 0.3 mg/tube, 48 hr): 27.0 ± 2.5c %
Mortality (Means ± standard error, %) ([1]; 0.4 mg/tube, 24 hr): 44.0 ± 2.8b %
Mortality (Means ± standard error, %) ([1]; 0.4 mg/tube, 48 hr): 46.0 ± 2.6b %
Mortality (Means ± standard error, %) ([1]; 0.5 mg/tube, 24 hr): 89.0%
Mortality (Means ± standard error, %) ([1]; 0.5 mg/tube, 48 hr): 92.0 ± 1.6a %
Mortality (Means ± standard error, %) ([1]; 1 mg/tube, 24 hr): 100a %
Mortality (Means ± standard error, %) ([1]; 1 mg/tube, 48 hr): 100a %
Mortality (Means ± standard error, %) (Dermatophagoides farinae; 0.125 mg/tube, 24 hr): 20.0 ± 1.6c %
Mortality (Means ± standard error, %) (Dermatophagoides farinae; 0.125 mg/tube, 48 hr): 27.0 ± 3.8c %
Mortality (Means ± standard error, %) (Dermatophagoides farinae; 0.2 mg/tube, 24 hr): 22.0 ± 1.2c %
Mortality (Means ± standard error, %) (Dermatophagoides farinae; 0.2 mg/tube, 48 hr): 28.0 ± 1.6c %
Mortality (Means ± standard error, %) (Dermatophagoides farinae; 0.25 mg/tube, 24 hr): 26.0 ± 2.0c %
Mortality (Means ± standard error, %) (Dermatophagoides farinae; 0.25 mg/tube, 48 hr): 34.02.6bc %
Mortality (Means ± standard error, %) (Dermatophagoides farinae; 0.3 mg/tube, 24 hr): 27.0 ± 1.9c %
Mortality (Means ± standard error, %) (Dermatophagoides farinae; 0.3 mg/tube, 48 hr): 37.0 ± 1.9bc %
Mortality (Means ± standard error, %) (Dermatophagoides farinae; 0.4 mg/tube, 24 hr): 44.0 ± 2.8b %
Mortality (Means ± standard error, %) (Dermatophagoides farinae; 0.4 mg/tube, 48 hr): 48.0 ± 2.8b %
Mortality (Means ± standard error, %) (Dermatophagoides farinae; 0.5 mg/tube, 24 hr): 99.0%
Mortality (Means ± standard error, %) (Dermatophagoides farinae; 0.5 mg/tube, 48 hr): 100a %
Mortality (Means ± standard error, %) (Dermatophagoides farinae; 1 mg/tube, 24 hr): 100a %
Mortality (Means ± standard error, %) (Dermatophagoides farinae; 1 mg/tube, 48 hr): 100a %
insecticidal activity against three species (stored-product pests): 100%
